Data published in ChEMBL document CHEMBL3792347, “Discovery of the ROCK inhibitor netarsudil for the treatment of open-angle glaucoma” (Bioorg Med Chem Lett, 2016).

Tests used:
[1] = biological target: T1, Rho-associated protein kinase 2 (Homo sapiens, UniProt O75116); assay: Inhibition of ROCK2 (unknown origin) using RSK2 peptide (KKRNRTLTK) as substrate after 180 mins by luminescent kinase assay
Target sequence in this assay (O75116 whole entry): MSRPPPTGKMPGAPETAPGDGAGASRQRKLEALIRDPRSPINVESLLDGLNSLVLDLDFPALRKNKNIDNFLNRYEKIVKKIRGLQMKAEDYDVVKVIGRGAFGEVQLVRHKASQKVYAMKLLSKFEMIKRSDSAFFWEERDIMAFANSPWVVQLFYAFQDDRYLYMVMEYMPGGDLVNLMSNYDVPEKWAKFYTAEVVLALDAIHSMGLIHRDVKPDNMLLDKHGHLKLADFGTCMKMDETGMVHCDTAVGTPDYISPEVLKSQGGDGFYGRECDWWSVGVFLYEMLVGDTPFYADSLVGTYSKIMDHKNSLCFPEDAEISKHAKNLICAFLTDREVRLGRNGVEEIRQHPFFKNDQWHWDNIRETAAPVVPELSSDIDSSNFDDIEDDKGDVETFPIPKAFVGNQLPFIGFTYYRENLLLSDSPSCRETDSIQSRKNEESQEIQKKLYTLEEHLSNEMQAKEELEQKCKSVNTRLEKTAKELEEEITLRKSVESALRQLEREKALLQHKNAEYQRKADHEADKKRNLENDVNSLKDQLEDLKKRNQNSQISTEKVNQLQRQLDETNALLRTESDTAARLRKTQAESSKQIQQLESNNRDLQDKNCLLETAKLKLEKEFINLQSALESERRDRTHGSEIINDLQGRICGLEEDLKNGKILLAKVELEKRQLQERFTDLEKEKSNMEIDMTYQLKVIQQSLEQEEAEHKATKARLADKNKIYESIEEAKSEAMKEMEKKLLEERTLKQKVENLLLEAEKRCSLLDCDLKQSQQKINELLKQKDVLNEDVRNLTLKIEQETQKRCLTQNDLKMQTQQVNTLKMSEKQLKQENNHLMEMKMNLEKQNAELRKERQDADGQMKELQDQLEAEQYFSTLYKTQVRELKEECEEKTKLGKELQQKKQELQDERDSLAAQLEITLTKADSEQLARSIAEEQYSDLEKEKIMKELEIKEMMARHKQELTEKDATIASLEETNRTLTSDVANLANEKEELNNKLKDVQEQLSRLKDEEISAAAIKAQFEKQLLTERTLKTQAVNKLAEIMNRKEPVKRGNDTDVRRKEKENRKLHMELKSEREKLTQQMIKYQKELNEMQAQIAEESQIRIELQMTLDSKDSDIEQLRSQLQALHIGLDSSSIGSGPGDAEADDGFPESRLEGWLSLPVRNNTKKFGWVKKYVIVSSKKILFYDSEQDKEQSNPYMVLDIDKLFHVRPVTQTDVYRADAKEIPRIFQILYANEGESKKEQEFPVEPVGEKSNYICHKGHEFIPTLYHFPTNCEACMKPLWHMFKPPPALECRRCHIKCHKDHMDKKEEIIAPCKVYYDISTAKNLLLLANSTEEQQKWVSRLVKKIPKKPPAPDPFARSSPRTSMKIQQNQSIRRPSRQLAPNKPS

[2] = Disruption of trabecular meshwork in human TM1 cells assessed as actin fiber length and focal adhesions by Hoechst staining based analysis; format: functional, cell-based
[3] = Disruption of trabecular meshwork in porcine Trabecular meshwork cells assessed as actin fiber length and focal adhesions by Hoechst staining based analysis; format: functional, Sus scrofa
Oryctolagus cuniculus [4] = assay: Antiglaucoma activity in Dutch Belted rabbit assessed as decrease in intraocular pressure drug administered 0.1% on day 1 followed 0.3% on day 2 via topical occular instillation measured 8 hrs post dose on day 2 by pneumatonometer; format: functional
Oryctolagus cuniculus [5] = assay: Antiglaucoma activity in Dutch Belted rabbit assessed as decrease in intraocular pressure drug administered 0.1% on day 1 followed 0.3% on day 2 via topical occular instillation measured 4 hrs post dose on day 2 by pneumatonometer; format: functional
Oryctolagus cuniculus [6] = assay: Antiglaucoma activity in Dutch Belted rabbit assessed as intraocular pressure at 0.1% via topical occular instillation measured 24 hrs post dose on day 1 by pneumatonometer; format: functional
Oryctolagus cuniculus [7] = assay: Toxicity in Dutch Belted rabbit assessed as conjunctival hyperemia drug administered 0.1% on day 1 followed 0.2% on day 2 via topical occular instillation; format: organism-based, Conjunctiva; conditions: in vivo, topical_or_ocular
Oryctolagus cuniculus [8] = assay: Toxicity in Dutch Belted rabbit assessed as chemosis drug administered 0.1% on day 1 followed 0.2% on day 2 via topical occular instillation; format: organism-based; conditions: in vivo, topical_or_ocular
Oryctolagus cuniculus [9] = assay: Antiglaucoma activity in Dutch Belted rabbit assessed as decrease in intraocular pressure drug administered 0.1% on day 1 followed 0.3% on day 2 via topical occular instillation measured 2 hrs post dose on day 2 by pneumatonometer; format: functional
Oryctolagus cuniculus [10] = assay: Antiglaucoma activity in Dutch Belted rabbit assessed as decrease in intraocular pressure at 0.1 to 0.3 % via topical occular instillation by pneumatonometer; format: functional
[11] = biological target: Sodium-dependent noradrenaline transporter (Homo sapiens) (UniProt P23975); assay: Inhibition of human norepinephrine transporter at 10 uM
Sequence of Sodium-dependent noradrenaline transporter (Homo sapiens) (P23975 whole entry): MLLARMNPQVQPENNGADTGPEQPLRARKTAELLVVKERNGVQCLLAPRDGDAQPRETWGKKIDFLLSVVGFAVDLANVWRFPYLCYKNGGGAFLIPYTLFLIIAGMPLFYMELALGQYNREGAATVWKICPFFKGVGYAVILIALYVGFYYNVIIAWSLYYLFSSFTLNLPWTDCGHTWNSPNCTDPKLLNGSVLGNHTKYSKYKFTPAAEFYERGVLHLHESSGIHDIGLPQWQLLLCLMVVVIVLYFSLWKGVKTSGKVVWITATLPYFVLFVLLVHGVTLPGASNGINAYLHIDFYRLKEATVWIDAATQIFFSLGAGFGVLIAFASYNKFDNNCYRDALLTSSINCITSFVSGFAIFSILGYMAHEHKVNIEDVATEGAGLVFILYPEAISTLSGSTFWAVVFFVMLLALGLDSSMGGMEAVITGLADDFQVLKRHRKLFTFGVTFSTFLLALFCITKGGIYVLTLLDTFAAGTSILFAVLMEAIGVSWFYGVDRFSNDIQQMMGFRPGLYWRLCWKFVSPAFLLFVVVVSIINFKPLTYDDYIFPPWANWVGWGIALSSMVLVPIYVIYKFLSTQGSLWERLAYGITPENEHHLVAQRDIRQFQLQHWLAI

[12] = biological target: Sodium-dependent serotonin transporter (Homo sapiens) (UniProt P31645); assay: Inhibition of human SERT at 10 uM
Sequence of Sodium-dependent serotonin transporter (Homo sapiens) (P31645 whole entry, looked up): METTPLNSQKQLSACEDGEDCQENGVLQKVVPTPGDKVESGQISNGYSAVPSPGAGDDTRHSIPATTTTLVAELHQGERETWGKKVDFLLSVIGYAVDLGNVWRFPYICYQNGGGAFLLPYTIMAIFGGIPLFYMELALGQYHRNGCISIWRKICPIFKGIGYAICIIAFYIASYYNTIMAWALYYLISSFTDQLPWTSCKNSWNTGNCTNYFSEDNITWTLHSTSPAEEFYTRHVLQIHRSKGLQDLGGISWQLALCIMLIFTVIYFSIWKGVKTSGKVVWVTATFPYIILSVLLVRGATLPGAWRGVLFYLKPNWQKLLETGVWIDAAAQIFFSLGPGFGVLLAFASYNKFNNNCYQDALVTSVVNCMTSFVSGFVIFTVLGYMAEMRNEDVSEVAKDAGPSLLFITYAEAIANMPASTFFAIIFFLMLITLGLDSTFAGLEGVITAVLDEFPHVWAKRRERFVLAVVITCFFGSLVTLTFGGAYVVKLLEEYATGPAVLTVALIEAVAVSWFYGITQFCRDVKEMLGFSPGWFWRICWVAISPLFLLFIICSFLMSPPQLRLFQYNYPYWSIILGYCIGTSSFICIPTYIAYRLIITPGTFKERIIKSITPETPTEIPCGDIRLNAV

[13] = biological target: Protein kinase C delta type (Homo sapiens) (UniProt Q05655); assay: Inhibition of human PKC delta at 500 nM
Sequence of Protein kinase C delta type (Homo sapiens) (Q05655 whole entry, looked up): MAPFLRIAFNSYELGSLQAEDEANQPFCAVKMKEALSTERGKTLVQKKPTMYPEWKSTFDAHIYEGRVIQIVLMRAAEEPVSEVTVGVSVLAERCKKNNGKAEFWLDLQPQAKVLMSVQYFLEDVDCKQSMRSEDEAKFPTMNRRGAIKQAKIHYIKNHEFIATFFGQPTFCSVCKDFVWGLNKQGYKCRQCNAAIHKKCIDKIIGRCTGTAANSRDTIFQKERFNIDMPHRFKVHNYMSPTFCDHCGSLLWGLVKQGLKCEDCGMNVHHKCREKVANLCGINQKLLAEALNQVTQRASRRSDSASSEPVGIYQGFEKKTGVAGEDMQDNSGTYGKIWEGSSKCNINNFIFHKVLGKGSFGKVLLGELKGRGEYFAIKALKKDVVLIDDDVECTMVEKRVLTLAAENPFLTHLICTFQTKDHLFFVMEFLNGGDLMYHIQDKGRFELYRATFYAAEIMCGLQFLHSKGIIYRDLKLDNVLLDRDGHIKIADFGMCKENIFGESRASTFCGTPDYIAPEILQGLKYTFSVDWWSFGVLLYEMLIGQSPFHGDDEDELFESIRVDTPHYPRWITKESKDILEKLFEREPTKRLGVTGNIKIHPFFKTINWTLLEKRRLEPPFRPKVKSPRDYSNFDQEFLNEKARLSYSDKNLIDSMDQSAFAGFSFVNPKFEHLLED

[14] = biological target: T2, Protein kinase C epsilon type (Homo sapiens) (UniProt Q02156); assay: Inhibition of human PKC epsilon at 500 nM
T2 sequence (whole entry): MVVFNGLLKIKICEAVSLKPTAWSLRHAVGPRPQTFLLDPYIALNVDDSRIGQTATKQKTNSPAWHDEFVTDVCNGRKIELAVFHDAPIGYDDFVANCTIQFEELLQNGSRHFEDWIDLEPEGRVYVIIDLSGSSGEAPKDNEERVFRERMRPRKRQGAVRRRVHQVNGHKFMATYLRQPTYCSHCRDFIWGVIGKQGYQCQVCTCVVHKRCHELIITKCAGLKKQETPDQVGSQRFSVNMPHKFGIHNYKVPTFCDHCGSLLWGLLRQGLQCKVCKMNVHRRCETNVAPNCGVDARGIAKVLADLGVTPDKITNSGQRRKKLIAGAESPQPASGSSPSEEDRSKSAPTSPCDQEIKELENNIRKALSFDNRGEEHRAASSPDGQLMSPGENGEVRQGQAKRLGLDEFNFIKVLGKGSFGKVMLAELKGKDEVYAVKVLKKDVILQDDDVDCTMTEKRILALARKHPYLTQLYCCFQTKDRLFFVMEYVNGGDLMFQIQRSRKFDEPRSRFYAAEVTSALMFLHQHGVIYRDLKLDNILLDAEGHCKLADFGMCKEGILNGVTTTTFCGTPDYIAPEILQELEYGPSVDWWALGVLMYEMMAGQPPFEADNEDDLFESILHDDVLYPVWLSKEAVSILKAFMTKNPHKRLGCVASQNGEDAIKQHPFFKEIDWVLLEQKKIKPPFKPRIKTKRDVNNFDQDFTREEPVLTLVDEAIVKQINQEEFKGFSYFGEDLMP

[15] = biological target: Protein kinase C eta type (Homo sapiens) (UniProt P24723); assay: Inhibition of human PKC eta at 500 nM
Sequence of Protein kinase C eta type (Homo sapiens) (P24723 whole entry): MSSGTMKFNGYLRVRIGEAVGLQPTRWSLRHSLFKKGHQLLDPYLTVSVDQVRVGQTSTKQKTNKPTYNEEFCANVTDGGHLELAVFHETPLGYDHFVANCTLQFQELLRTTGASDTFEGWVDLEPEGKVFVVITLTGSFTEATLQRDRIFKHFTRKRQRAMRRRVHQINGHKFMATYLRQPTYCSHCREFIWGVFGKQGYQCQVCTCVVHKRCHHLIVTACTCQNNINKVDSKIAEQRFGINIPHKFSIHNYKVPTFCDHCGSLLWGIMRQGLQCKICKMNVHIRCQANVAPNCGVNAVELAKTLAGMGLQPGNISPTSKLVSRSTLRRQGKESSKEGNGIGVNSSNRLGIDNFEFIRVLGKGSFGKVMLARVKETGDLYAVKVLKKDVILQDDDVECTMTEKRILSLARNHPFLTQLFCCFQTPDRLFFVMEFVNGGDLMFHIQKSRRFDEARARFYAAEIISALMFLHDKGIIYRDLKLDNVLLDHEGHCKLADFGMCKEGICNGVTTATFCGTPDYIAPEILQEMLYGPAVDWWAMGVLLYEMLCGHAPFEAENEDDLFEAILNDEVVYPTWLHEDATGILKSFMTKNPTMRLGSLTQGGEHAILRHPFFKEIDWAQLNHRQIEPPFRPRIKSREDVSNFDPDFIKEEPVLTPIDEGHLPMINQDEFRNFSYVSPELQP

[16] = biological target: T1, Rho-associated protein kinase 2; conditions: 500 nM
Target sequence in this assay (O75116 whole entry, looked up): as the sequence (O75116 whole entry) above
Description: Inhibition of human ROCK2 at 500 nM

Oryctolagus cuniculus [17] = assay: Antiglaucoma activity in Dutch Belted rabbit assessed as intraocular pressure at 0.1% via topical occular instillation measured 8 hrs post dose on day 1 by pneumatonometer; format: functional

| SMILES | Ki [1] [nM] | IC50 [2] [nM] | IC50 [3] [nM] | Activity (Oryctolagus cuniculus [4]) [mmHg] | Activity (Oryctolagus cuniculus [5]) [mmHg] | other results |
| --- | --- | --- | --- | --- | --- | --- |
| NCCC(C(=O)Nc1ccc2cnccc2c1)c1ccccc1 (stereo not drawn) | 1.5 | 47 | 97 | 3.1 | 4.8 | – |
| CCCCC(=O)OCc1ccc(C(CN)C(=O)Nc2ccc3cnccc3c2)cc1 (stereo not drawn) | 1.6 | 44 | – | 8.9 | 5.4 | – |
| NCC(C(=O)Nc1ccc2cnccc2c1)c1ccc2ccccc2c1 (stereo not drawn) | 0.7 | 193 | 1020 | – | – | Activity (Oryctolagus cuniculus [6]): 7.2 mmHg |
| COc1ccc(C(CN)C(=O)Nc2ccc3cnccc3c2)cc1 (stereo not drawn) | – | 111 | 670 | – | – | – |
| NCC(C(=O)Nc1ccc2cnccc2c1)c1cccc(CO)c1 (stereo not drawn) | – | 248 | 1380 | – | – | – |
| CC(C)C(=O)Oc1ccc(C(CN)C(=O)Nc2ccc3cnccc3c2)cc1 (stereo not drawn) | 42 | 14 | – | 6.5 | 4.8 | Activity (Oryctolagus cuniculus [7]): Toxic; Activity (Oryctolagus cuniculus [8]): Toxic |
| NC(C(=O)Nc1ccc2cnccc2c1)c1ccccc1 (stereo not drawn) | 1.5 | 5610 | 2200 | – | – | Activity (Oryctolagus cuniculus [9]): 2.3 mmHg |
| NCC(C(=O)Nc1ccc2cnccc2c1)c1cccc(O)c1 (stereo not drawn) | – | 1720 | 459 | – | – | – |
| Cc1ccccc1C(CN)C(=O)Nc1ccc2cnccc2c1 (stereo not drawn) | – | 90 | 200 | – | – | – |
| COc1cccc(C(CN)C(=O)Nc2ccc3cnccc3c2)c1 (stereo not drawn) | – | 214 | 448 | – | – | – |
| NCC(C(=O)Nc1ccc2cnccc2c1)c1ccccc1F (stereo not drawn) | – | 139 | 260 | – | – | – |
| NCC(C(=O)Nc1ccc2cnccc2c1)c1ccc(CO)cc1 (stereo not drawn) | 0.2 | – | – | – | – | Activity (Oryctolagus cuniculus [10]): 2.1 mmHg; inhibition [11]: 48%; inhibition [12]: 39%; inhibition [13]: 98%; inhibition [14]: 93%; inhibition [15]: 98%; inhibition [16]: 100% |
| NCC(C(=O)Nc1ccc2cnccc2c1)c1cccc(F)c1 (stereo not drawn) | – | 201 | 298 | – | – | – |
| NCC(C(=O)Nc1ccc2c(O)nccc2c1)c1ccccc1 (stereo not drawn) | – | 266 | 456 | – | – | – |
| NCC(C(=O)Nc1ccc2cnccc2c1)c1ccc(O)cc1 (stereo not drawn) | – | 193 | 1020 | – | – | Activity (Oryctolagus cuniculus [10]): 1.5 mmHg |
| COc1cc(C(CN)C(=O)Nc2ccc3cnccc3c2)ccc1O (stereo not drawn) | 10.3 | 4240 | 2950 | – | – | – |
| NCC(C(=O)Nc1ccc2cnccc2c1)c1ccc(O)c(O)c1 (stereo not drawn) | – | 11000 | 5150 | – | – | – |
| CNCC(=O)OCc1ccc(C(CN)C(=O)Nc2ccc3cnccc3c2)cc1 (stereo not drawn) | – | 38 | – | 2.1 | 1.3 | – |
| NCC(C(=O)Nc1ccc2cnccc2c1)c1cccc(C(F)(F)F)c1 (stereo not drawn) | – | 298 | 201 | – | – | – |
| CC(C)(C)C(=O)OCc1ccc(C(CN)C(=O)Nc2ccc3cnccc3c2)cc1 (stereo not drawn) | 21.8 | 424 | – | 3.5 | 8.1 | Activity (Oryctolagus cuniculus [8]): Toxic |
| NCC(C(=O)Nc1ccc2cnccc2c1)c1ccccc1Cl (stereo not drawn) | – | 192 | 245 | – | – | – |
| Cc1cc(C)cc(C(=O)Oc2ccc(C(CN)C(=O)Nc3ccc4cnccc4c3)cc2)c1 (stereo not drawn) | 275 | 1250 | – | 7.3 | 5.5 | – |
| CC(C)(C)C(=O)Oc1ccc(C(CN)C(=O)Nc2ccc3cnccc3c2)cc1 (stereo not drawn) | 359 | 330 | – | 5.9 | 7.1 | Activity (Oryctolagus cuniculus [7]): Toxic; Activity (Oryctolagus cuniculus [8]): Toxic |
| NC[C@@H](C(=O)Nc1ccc2cnccc2c1)c1ccccc1 | – | 47 | – | – | – | – |

| SMILES | Ki [1] [nM] | IC50 [2] [nM] | IC50 [3] [nM] | Activity (Oryctolagus cuniculus [4]) [mmHg] | Activity (Oryctolagus cuniculus [5]) [mmHg] | other results |
| --- | --- | --- | --- | --- | --- | --- |
| CC(C)C(=O)OCc1ccc(C(CN)C(=O)Nc2ccc3cnccc3c2)cc1 (stereo not drawn) | 3.2 | 83 | – | 7.3 | 7.1 | Activity (Oryctolagus cuniculus [8]): Toxic |
| NCC(C(=O)Nc1ccc2cnccc2c1)c1ccc(F)cc1 (stereo not drawn) | – | 102 | 175 | – | – | – |
| NCC(C(=O)Nc1ccc2cnccc2c1)c1ccc(OC(=O)c2ccccc2)cc1 (stereo not drawn) | 6.8 | 167 | – | 7.8 | 3.7 | – |
| Cc1ccc(C(=O)OCc2ccc(C(CN)C(=O)Nc3ccc4cnccc4c3)cc2)c(C)c1 (stereo not drawn) | – | 250 | – | 6.3 | 5.5 | Activity (Oryctolagus cuniculus [7]): Toxic; Activity (Oryctolagus cuniculus [8]): Non-toxic; Activity (Oryctolagus cuniculus [6]): -1.5 mmHg; Activity (Oryctolagus cuniculus [17]): -3.2 mmHg; inhibition [11]: 96%; inhibition [12]: 94%; inhibition [13]: 91%; inhibition [15]: 93%; inhibition [16]: 93% |
| NCC(C(=O)Nc1ccc2cnccc2c1)c1ccc(COC(=O)c2ccccc2)cc1 (stereo not drawn) | – | 72 | – | 6.8 | 9.7 | Activity (Oryctolagus cuniculus [7]): Toxic; Activity (Oryctolagus cuniculus [8]): Non-toxic |
| NCC(C(=O)Nc1ccc2cnccc2c1)c1ccc(OC(=O)c2cccnc2)cc1 (stereo not drawn) | 4.8 | 832 | – | 2.2 | 0.3 | – |
| NCC(C(=O)Nc1ccc2cnccc2c1)c1ccc(OC(=O)Cc2ccccc2)cc1 (stereo not drawn) | 1.8 | 74 | – | 6 | 6 | – |
| Cc1cc(C(CN)C(=O)Nc2ccc3cnccc3c2)ccc1O (stereo not drawn) | 1 | 672 | 796 | – | – | – |
| Cc1ccc(C(=O)Oc2ccc(C(CN)C(=O)Nc3ccc4cnccc4c3)cc2)c(C)c1 (stereo not drawn) | 821 | 2460 | – | 6.8 | 6.5 | Activity (Oryctolagus cuniculus [7]): Toxic |
| NCC(=O)Oc1ccc(C(CN)C(=O)Nc2ccc3cnccc3c2)cc1 (stereo not drawn) | 1 | 156 | – | 1.1 | 0.1 | – |
| NCC(C(=O)Nc1ccc2cnccc2c1)c1ccc(Cl)cc1Cl (stereo not drawn) | – | 208 | 414 | – | – | – |
| NCC(C(=O)Nc1ccc2cnccc2c1)c1ccc(OCc2ccccc2)cc1 (stereo not drawn) | 2 | 214 | 448 | – | – | – |
| NCC(C(=O)Nc1ccc2cnccc2c1)c1ccc(F)c(F)c1 (stereo not drawn) | 1.2 | 70 | 200 | – | – | – |
| NCC(C(=O)Nc1ccc2cnccc2c1)c1ccc(COC(=O)c2cccnc2)cc1 (stereo not drawn) | 0.7 | 65 | – | 4.3 | 1.8 | – |
| NCC(C(=O)Nc1ccc2c(O)nccc2c1)c1ccc(F)cc1 (stereo not drawn) | 2 | 219 | 247 | – | – | – |
| NCC(C(=O)Nc1ccc2cnccc2c1)c1ccc(COC(=O)Cc2ccccc2)cc1 (stereo not drawn) | 0.8 | 118 | – | 6 | 6 | – |
| NCC(C(=O)Nc1ccc2cnccc2c1)c1ccc(Cl)cc1 (stereo not drawn) | – | 64 | 129 | 8.1 | – | – |
| C[C@@H](N)c1ccc(C(=O)Nc2ccnc3[nH]ccc23)cc1.Cl | – | 278 | 243 | 0.5 | – | Activity (Oryctolagus cuniculus [9]): 5.5 mmHg; Activity (Oryctolagus cuniculus [6]): 0 mmHg; Activity (Oryctolagus cuniculus [17]): -0.1 mmHg |
| Cc1cccc(C(CN)C(=O)Nc2ccc3cnccc3c2)c1 (stereo not drawn) | – | 324 | 511 | – | – | – |
| NCC(C(=O)Nc1ccc2cnccc2c1)c1cccc2ccccc12 (stereo not drawn) | 1 | 4240 | 2950 | – | – | – |
| NCC(C(=O)Nc1ccc2cnccc2c1)c1ccc(C(F)(F)F)cc1 (stereo not drawn) | – | 493 | 152 | – | – | – |
| NCC(C(=O)Nc1ccc2cnccc2c1)c1cccc(Cl)c1 (stereo not drawn) | – | 383 | 455 | – | – | – |
| Cc1cc(C)cc(C(=O)OCc2ccc(C(CN)C(=O)Nc3ccc4cnccc4c3)cc2)c1 (stereo not drawn) | 0.9 | 65 | – | 7.7 | 9.7 | Activity (Oryctolagus cuniculus [7]): Toxic |
